# Measured values reported in article PMC8214221, “Sequence determinants in the cathelicidin LL-37 that promote inflammation via presentation of RNA to scavenger receptors” (The Journal of Biological Chemistry, 2021).
# Residues, ends and D or L forms follow the SMILES beside them.
# Experiments:
# [1] = test system: Escherichia coli; assay: Bacterial growth inhibition (OD600), E. coli; type: cell-based; conditions: 0-50 µM overnight, OD 600, n = 3
# Description: We further looked at mRNA abundance by quantitative RT-PCR (qRT-PCR) to evaluate gene expression for type 1 interferon IFNB1, chemokine CXCL10, and cytokines TSLP and IL6 in NHEKs treated with selected LL-34 parent, LL-34—F5A, I24A, F27A, and L31A—peptides either alone or in combination with U1 dsRNA for 18 h (Fig. 1, E–H).
# Methicillin-resistant S. aureus USA300 and methicillin-sensitive S. aureus SA113 (American Type Culture Collection 35556) were cultured in 3% tryptic soy broth overnight at 37 °C with shaking at 250 rpm. GAS M49 strain NZ131 was cultured in Todd Hewitt broth supplemented with 1% yeast extract overnight at 37 °C without shaking. E. coli R1 strain RS218 was cultured in LB broth overnight at 37 °C with shaking at 250 rpm. MIC values were determined using a round-bottom 96-well microdilution method with RPMI cell culture media (as a source of Ca^2+ and Mg^2+) supplemented with tryptic soy broth, Todd Hewitt broth/yeast extract, or LB to facilitate growth of the respective bacterial strains. Overnight bacterial cultures were subcultured into fresh broth and grown to midlate log phase indicated by an absorbance at 600 nm value between 0.8 and 1.0 for each bacterial strain. The absorbance was then normalized to provide a concentration of 1 × 10^7 colony-forming units/ml in RPMI medium. The LL-34 parent and alanine scan mutants were serially diluted into the 96-well microtiter plates containing prewarmed RPMI bacterial growth medium. A 10 μl aliquot of the midlate log phase bacteria was inoculated into the 96-well microtiter plates that contained 95 μl of RPMI medium with or without the LL-34 peptide dilutions and incubated for 16 to 18 h at […] with shaking at 200 rpm. Inhibition of growth was determined by measuring the absorbance at 600 nm readings of each well using a microplate reader (Infinite M200 Pro; Tecan). The MIC of each bacterial strain was determined by the lowest peptide concentration that inhibited more than 80% bacterial growth.
# (A) NHEKs and HDMECs (B) were treated with LL34- parent peptide and all the 34 alanine substituted peptides (Pep L1A-Pep R34A) and LL37 at 2 µM for 16 h. IL-6 protein secretion was assessed with ELISA (n=3) (C-F) LL34-Parent, LL34 F5A, LL34 I24A, LL34 F27A, and LL34 L31A peptides were incubated with S. aureus USA 300, S. aureus SA113, Group A Streptococcus (GAS) and E. coli at increasing concentrations (0-50 µM) overnight, and bacterial culture growth was assayed as absorbance at OD 600 (n=3).
# [2] = test system: C57BL/6 mouse ear skin inflammation; assay: Intradermal ear injection with U1 dsRNA in mice; type: in vivo; conditions: 24 h; for Gene expression of IL-6 and CXCL10 in mouse ears: C57BL/6 female mice, intradermal ear coinjection of 25 μg U1 dsRNA and 16 μM peptide, qRT-PCR, mutants compared with U1 dsRNA + LL-34 parent; for Mast cells in mouse ear skin (flow cytometry) / Macrophage and neutrophil recruitment in mouse ear skin (flow cytometry): C57BL/6 mice, intradermal coinjection of 25 μg U1 dsRNA and 16 μM peptide, n = 3; for Mast cells in mouse ear skin (flow cytometry): frequency of gated live cells; for Macrophage and neutrophil recruitment in mouse ear skin (flow cytometry): mutants compared with LL-34 parent + U1 dsRNA
# Description: C57BL/6 female mice at 8 weeks old were injected in the ears intradermally with a single injection of 25 μg of U1 dsRNA and/or LL-34 parent, Pep I24A, or Pep L31A. We investigated gene expression of IL-6, CXCL10, and TSLP in these mice (Fig. 2, B–D). […] This was in agreement with the in vitro results (Fig. 1). We also looked at the infiltration of immune cells to the mouse ear skin with flow cytometry.
# Figure 2 LL-34-I24A and LL-34-L31A peptides loose vetting activity in vivo. C57BL/6 mice ears were injected intradermally with either 25 μg of U1 dsRNA, 16 μM LL-34-parent, LL-34-I24A, and LL-34-L31A as shown in the figure for 24 h (n = 6). A, H&E staining of cross sections of mice injected with U1 dsRNA or LL-34 peptides is shown. The bar represents […]. B–D, gene expression changes for IL-6, CXCL10, and TSLP were assessed with qRT-PCR. GAPDH was used as a reference gene. E–G, flow cytometry analysis was performed to assess the infiltration of immune cells in mouse ears injected with U1 dsRNA alone or a combination of U1 dsRNA and LL-34 peptides. Data are represented as the frequency of gated live cells for mast cells, macrophages, and neutrophils. (n = 3) (∗p < 0.05; ∗∗p < 0.01; ∗∗∗p < 0.001; ∗∗∗∗p < 0.0001). One way-ANOVA was used. LL-34, 34-amino acid peptide; ns, not significant.
# All mouse procedures were approved by the University of California, San Diego (UCSD) Institutional Animal Care and Use Program (protocol number: S09074). Eight-week-old female C57BL/6 wildtype mice were used for experiments. C57BL/6 mice ears were injected intradermally with U1 dsRNA and/or LL-34 peptides as described previously ([7]). Single injections were performed. A total of 30 μl was injected in the middle part of the ear. Twenty-four hours after the injection, mice were euthanized with CO2 asphyxiation and ears excised and immediately collected in cold RPMI complete medium on ice and processed for immunohistochemistry, gene expression analysis, and flow cytometry within 1 h.
# Mouse ears were collected following euthanasia in cold complete RPMI media on ice and cut into small pieces within 60 min, then digested with 2.5 mg/ml collagenase D, and 30 ng/ml DNase1 for 2 h at 37 °C and then filtered through a 30 μm filter to generate single-cell suspension for fluorescence-activated cell sorting analyses. Cells were then stained with Fixable Viability Dye eFluor 506 (eBioscience; 65-0866-14) blocked with antimouse CD16/32 (eBioscience; 14016185, 1:50 dilution), followed by staining with antibody cocktails for immune cells. The antibody cocktail for immune cells included PECy7-CD11b (BioLegend; 101216, 1:200 dilution), FITC-Ly6G (eBioscience; 11593182, 1:150 dilution), PE-F4/80 (eBioscience; 12480182, 1:200 dilution), APC-CD11C (BioLegend; 117310, 1:100 dilution), AF700-MHCII (eBioscience; 56532182, 1:100 dilution), and c-Kit (Biolegend; 10581, 1:100 dilution). Fluorescence-activated cell sorting analyses for surface expression of immune cell markers were performed by the Biorad ZE5 machine and analyzed by FlowJo V10 software (BD Biosciences). Dead cells were gated out from the analyses.
smiles,measurement,setting,value
CC[C@H](C)[C@H](NC(=O)[C@H](CCCCN)NC(=O)[C@H](CCC(=O)O)NC(=O)[C@H](CCCCN)NC(=O)[C@H](CO)NC(=O)[C@H](CCCCN)NC(=O)[C@H](CCCNC(=N)N)NC(=O)[C@H](Cc1ccccc1)NC(=O)[C@H](Cc1ccccc1)NC(=O)[C@H](CC(=O)O)NC(=O)CNC(=O)[C@H](CC(C)C)NC(=O)[C@@H](N)CC(C)C)C(=O)NCC(=O)N[C@@H](CCCCN)C(=O)N[C@@H](CCC(=O)O)C(=O)N[C@@H](Cc1ccccc1)C(=O)N[C@@H](CCCCN)C(=O)N[C@@H](CCCNC(=N)N)C(=O)N[C@H](C(=O)N[C@H](C(=O)N[C@@H](CCC(N)=O)C(=O)N[C@@H](CCCNC(=N)N)C(=O)N[C@@H](C)C(=O)N[C@@H](CCCCN)C(=O)N[C@@H](CC(=O)O)C(=O)N[C@@H](Cc1ccccc1)C(=O)N[C@@H](CC(C)C)C(=O)N[C@@H](CCCNC(=N)N)C(=O)N[C@@H](CC(N)=O)C(=O)N[C@@H](CC(C)C)C(=O)N[C@H](C(=O)N1CCC[C@H]1C(=O)N[C@@H](CCCNC(=N)N)C(=O)O)C(C)C)C(C)C)[C@@H](C)CC [LL-34—I24A] (H-LLGDFFRKSKEKIGKEFKRIVQRAKDFLRNLVPR-OH),Action against Gram-negative E. coli,[1],little action
same,Gene expression of IL-6 and CXCL10 in mouse ears,[2],significantly reduced
same,Mast cells in mouse ear skin (flow cytometry),[2],similarly increased mast cells
same,Macrophage and neutrophil recruitment in mouse ear skin (flow cytometry),[2],significant reduction in macrophage and neutrophil recruitment
CC[C@H](C)[C@H](NC(=O)[C@H](CCCCN)NC(=O)[C@H](CCC(=O)O)NC(=O)[C@H](CCCCN)NC(=O)[C@H](CO)NC(=O)[C@H](CCCCN)NC(=O)[C@H](CCCNC(=N)N)NC(=O)[C@H](Cc1ccccc1)NC(=O)[C@H](Cc1ccccc1)NC(=O)[C@H](CC(=O)O)NC(=O)CNC(=O)[C@H](CC(C)C)NC(=O)[C@@H](N)CC(C)C)C(=O)NCC(=O)N[C@@H](CCCCN)C(=O)N[C@@H](CCC(=O)O)C(=O)N[C@@H](Cc1ccccc1)C(=O)N[C@@H](CCCCN)C(=O)N[C@@H](CCCNC(=N)N)C(=O)N[C@H](C(=O)N[C@H](C(=O)N[C@@H](CCC(N)=O)C(=O)N[C@@H](CCCNC(=N)N)C(=O)N[C@H](C(=O)N[C@@H](CCCCN)C(=O)N[C@@H](CC(=O)O)C(=O)N[C@@H](Cc1ccccc1)C(=O)N[C@@H](CC(C)C)C(=O)N[C@@H](CCCNC(=N)N)C(=O)N[C@@H](CC(N)=O)C(=O)N[C@@H](C)C(=O)N[C@H](C(=O)N1CCC[C@H]1C(=O)N[C@@H](CCCNC(=N)N)C(=O)O)C(C)C)[C@@H](C)CC)C(C)C)[C@@H](C)CC [LL-34—L31A] (H-LLGDFFRKSKEKIGKEFKRIVQRIKDFLRNAVPR-OH),Action against Gram-negative E. coli,[1],little action
same,Gene expression of IL-6 and CXCL10 in mouse ears,[2],significantly reduced
same,Mast cells in mouse ear skin (flow cytometry),[2],significant decrease in mast cell number
same,Macrophage and neutrophil recruitment in mouse ear skin (flow cytometry),[2],significant reduction in macrophage and neutrophil recruitment
